In PubChem BioAssay AID330 (DTP/NCI, 2004):
Several values for one entry are separate records, joined by “and”; a condition that tells them apart may be missing. Equal entries are not always repeated. Toxic doses and inconclusive results are not listed. How the source made its calls: active means survival T/C of 150% or more; inactive means T/C below 125% in these data.

Test system: P388 leukemia ip, CD2F1 mice, survival T/C
Test: NCI In Vivo Anticancer Drug Screen. Data for tumor model P388 Leukemia (intraperitoneal) in CD2F1 (CDF1) mice
Conditions: endpoint: median survival time, higher = longer survival
How it was run: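 Mice carrying the transplanted tumor received test compound or vehicle. Survival was recorded in each group, and the value is the treated-group measurement divided by that of the vehicle-treated control group.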

[1] = dose: 50.0 mg/kg/injection, schedule: Q01DX005 (ip), vehicle: Klucel (hydroxypropylcellulose) (HPC)
[2] = dose: 100.0 mg/kg/injection, schedule: Q01DX005 (ip), vehicle: Klucel (hydroxypropylcellulose) (HPC)
[3] = dose: 200.0 mg/kg/injection, schedule: Q01DX005 (ip), vehicle: Klucel (hydroxypropylcellulose) (HPC)
[4] = dose: 50.0 mg/kg/injection, schedule: Q01DX009 (ip), vehicle: Klucel (hydroxypropylcellulose) (HPC)
[5] = dose: 100.0 mg/kg/injection, schedule: Q01DX009 (ip), vehicle: Klucel (hydroxypropylcellulose) (HPC)
[6] = dose: 200.0 mg/kg/injection, schedule: Q01DX009 (ip), vehicle: Klucel (hydroxypropylcellulose) (HPC)
[7] = dose: 100.0 mg/kg/injection, schedule: Q01DX001 (ip), vehicle: saline with Tween-80
[8] = dose: 200.0 mg/kg/injection, schedule: Q01DX001 (ip), vehicle: saline with Tween-80
[9] = dose: 400.0 mg/kg/injection, schedule: Q01DX001 (ip), vehicle: saline with Tween-80
[10] = dose: 50.0 mg/kg/injection, schedule: Q01DX009 (ip), vehicle: saline with Tween-80
[11] = dose: 100.0 mg/kg/injection, schedule: Q01DX009 (ip), vehicle: saline with Tween-80
[12] = dose: 200.0 mg/kg/injection, schedule: Q01DX009 (ip), vehicle: saline with Tween-80
[13] = dose: 100.0 mg/kg/injection, schedule: Q01DX001 (ip), vehicle: Klucel (hydroxypropylcellulose) (HPC)
[14] = dose: 200.0 mg/kg/injection, schedule: Q01DX001 (ip), vehicle: Klucel (hydroxypropylcellulose) (HPC)
[15] = dose: 400.0 mg/kg/injection, schedule: Q01DX001 (ip), vehicle: Klucel (hydroxypropylcellulose) (HPC)
[16] = dose: 50.0 mg/kg/injection, schedule: Q01DX005 (ip), vehicle: saline with Tween-80
[17] = dose: 100.0 mg/kg/injection, schedule: Q01DX005 (ip), vehicle: saline with Tween-80
[18] = dose: 200.0 mg/kg/injection, schedule: Q01DX005 (ip), vehicle: saline with Tween-80

Measured: T/C

Cc1cc([O-])c([I+]c2ccccc2)c(=O)[nH]1
inactive: [1] 103 % of control | [2] 110 % of control | [3] 102 % of control

N#CCNC=O
inactive: dose: 60.0 mg/kg/injection, schedule: Q01DX005 (ip), vehicle: saline 98 % of control | dose: 120.0 mg/kg/injection, schedule: Q01DX005 (ip), vehicle: saline 103 % of control | dose: 240.0 mg/kg/injection, schedule: Q01DX005 (ip), vehicle: saline 100 % of control

Cc1cc(Br)c2c(c1N)C(=O)c1ccccc1C2=O
inactive: [4] 99 % of control | [5] 107 % of control | [6] 102 % of control

CC1(C)CCNc2ccccc2S1
inactive: [7] 103 % of control | [8] 103 % of control | [9] 100 % of control

C/C(=N\OC(=O)CNOC(C)(C)C)c1ccccn1
inactive: [7] 103 % of control | [8] 99 % of control | [9] 99 % of control

Clc1nc(Cl)c2[nH]c(Cl)nc2n1
inactive: [1] 99 % of control | [2] 99 % of control | [3] 102 % of control

O=C(O)/C=C\C(=O)Nc1ccccn1
inactive: dose: 5.0 mg/kg/injection, schedule: Q01DX009 (ip), vehicle: saline with Tween-80 109 % of control | dose: 5.0 mg/kg/injection, schedule: Q01DX009 (ip), vehicle: saline 100 % of control | dose: 10.0 mg/kg/injection, schedule: Q01DX009 (ip), vehicle: saline with Tween-80 100 % of control | dose: 10.0 mg/kg/injection, schedule: Q01DX009 (ip), vehicle: saline 105 % of control | dose: 20.0 mg/kg/injection, schedule: Q01DX009 (ip), vehicle: saline with Tween-80 104 % of control | dose: 30.0 mg/kg/injection, schedule: Q01DX009 (ip), vehicle: saline 105 % of control | dose: 60.0 mg/kg/injection, schedule: Q01DX009 (ip), vehicle: saline 100 % of control

CC1CCC(C(C)C)C(NC(=O)c2ccccn2)C1 (stereo not drawn)
inactive: dose: 100.0 mg/kg/injection, schedule: Q04DX002 (ip), vehicle: Klucel (hydroxypropylcellulose) (HPC) 101 % of control | dose: 200.0 mg/kg/injection, schedule: Q04DX002 (ip), vehicle: Klucel (hydroxypropylcellulose) (HPC) 90 % of control | dose: 400.0 mg/kg/injection, schedule: Q04DX002 (ip), vehicle: Klucel (hydroxypropylcellulose) (HPC) 97 % of control

Cc1cc(O)c(CCC(C)CCCC(C)C)c(O)c1 (stereo not drawn)
inactive: [1] 100 % of control | [2] 100 % of control | [3] 110 % of control

CCC1C2Cc3ccc(O)cc3C1(CC)CCN2Cc1ccoc1 (stereo not drawn)
inactive: [10] 96 % of control | [11] 88 % of control | [12] 91 % of control

COc1cc(/C=C2\SC(=O)N(C)C2=O)ccc1O
inactive: [10] 104 % of control | [11] 90 % of control | [12] 87 % of control

COc1cc2c(cc1OC)[C@@H]1C(=O)c3ccc4c(c3O[C@@H]1CO2)C[C@H](C(C)C)O4
inactive: dose: 6.25 mg/kg/injection, schedule: Q01DX005 (ip), vehicle: Klucel (hydroxypropylcellulose) (HPC) 109 % of control | dose: 12.5 mg/kg/injection, schedule: Q01DX005 (ip), vehicle: Klucel (hydroxypropylcellulose) (HPC) 121 % of control and 123 % of control and 124 % of control | dose: 25.0 mg/kg/injection, schedule: Q01DX005 (ip), vehicle: Klucel (hydroxypropylcellulose) (HPC) 119 % of control

CC(=O)Oc1c2c(c(OC(C)=O)c3ccccc13)C(=O)C(O)C(C)O2 (stereo not drawn)
inactive: [13] 102 % of control | [14] 96 % of control | [15] 100 % of control

O=C(C=Nc1ccc(Cl)c(Cl)c1)c1ccccc1
inactive: [4] 100 % of control | [5] 100 % of control | [6] 94 % of control

C1CCN2CC3CC(CN4CCCCC34)C2C1 (stereo not drawn)
inactive: dose: 1.87 mg/kg/injection, schedule: Q01DX005 (ip), vehicle: saline 100 % of control | dose: 3.75 mg/kg/injection, schedule: Q01DX005 (ip), vehicle: saline 101 % of control | dose: 6.2 mg/kg/injection, schedule: Q01DX007 (ip), vehicle: carboxymethylcellulose (CMC) 91 % of control | dose: 7.5 mg/kg/injection, schedule: Q01DX005 (ip), vehicle: saline 102 % of control | dose: 12.5 mg/kg/injection, schedule: Q01DX007 (ip), vehicle: carboxymethylcellulose (CMC) 100 % of control | dose: 15.0 mg/kg/injection, schedule: Q01DX005 (ip), vehicle: saline 100 % of control | dose: 25.0 mg/kg/injection, schedule: Q01DX005 (ip), vehicle: saline 92 % of control | dose: 25.0 mg/kg/injection, schedule: Q01DX007 (ip), vehicle: carboxymethylcellulose (CMC) 91 % of control | dose: 50.0 mg/kg/injection, schedule: Q01DX005 (ip), vehicle: saline 99 % of control

Nc1ccccc1C(=O)Nc1ccc(Cl)cc1Cl
inactive: [16] 104 % of control | [17] 92 % of control | [18] 92 % of control

C=CCN(CC=C)c1cc(NN)nnc1Cl
inactive: dose: 25.0 mg/kg/injection, schedule: Q01DX009 (ip), vehicle: other 102 % of control | dose: 50.0 mg/kg/injection, schedule: Q01DX009 (ip), vehicle: other 105 % of control

CCOc1cc2cc(CCC#N)c(C)cc2cn1
inactive: dose: 12.5 mg/kg/injection, schedule: Q01DX009 (ip), vehicle: distilled water + Tween-80 93 % of control | dose: 25.0 mg/kg/injection, schedule: Q01DX009 (ip), vehicle: distilled water + Tween-80 87 % of control | dose: 50.0 mg/kg/injection, schedule: Q01DX009 (ip), vehicle: distilled water + Tween-80 87 % of control

O=C(C(Br)C(Br)c1ccccc1)C(Br)C(Br)c1ccccc1 (stereo not drawn)
inactive: dose: 100.0 mg/kg/injection, schedule: Q04DX003 (ip), vehicle: saline sonified 104 % of control | dose: 200.0 mg/kg/injection, schedule: Q04DX003 (ip), vehicle: saline sonified 100 % of control | dose: 400.0 mg/kg/injection, schedule: Q04DX003 (ip), vehicle: saline sonified 95 % of control

CCOC(=O)c1cc(Cl)ccc1OS(N)(=O)=O
inactive: dose: 60.0 mg/kg/injection, schedule: Q01DX005 (ip), vehicle: Klucel (hydroxypropylcellulose) (HPC) 105 % of control | dose: 120.0 mg/kg/injection, schedule: Q01DX005 (ip), vehicle: Klucel (hydroxypropylcellulose) (HPC) 100 % of control | dose: 240.0 mg/kg/injection, schedule: Q01DX005 (ip), vehicle: Klucel (hydroxypropylcellulose) (HPC) 99 % of control

COc1cccc2c1ccc1nonc12
inactive: [16] 95 % of control | [17] 88 % of control | [18] 86 % of control

CCOc1ccc(/C=N/NC(=O)C(O)c2ccccc2)cc1OC (stereo not drawn)
inactive: dose: 60.0 mg/kg/injection, schedule: Q01DX005 (ip), vehicle: saline with Tween-80 96 % of control | dose: 120.0 mg/kg/injection, schedule: Q01DX005 (ip), vehicle: saline with Tween-80 100 % of control | dose: 240.0 mg/kg/injection, schedule: Q01DX005 (ip), vehicle: saline with Tween-80 94 % of control

CNC(=O)OCCC(OC(=O)NC)C1CCC2C3CCC4CC(OC(=O)NC)CCC4(C)C3CCC12C (stereo not drawn)
inactive: [13] 108 % of control | [14] 108 % of control | [15] 101 % of control
